What is called viability is a read-out of living cells in per cent, often relative to untreated cells. High values mean better survival, low ones a greater loss of cells.

The source of these data is patent publication US6440935B1, “Inhibition of eucaryotic pathogens and neoplasms and stimulation of fibroblasts and lymphocytes with lytic peptides” (priority 1987, dated 2002).

Data set [1] concerns T. cruzi intracellular amastigotes in Vero cells. Put plainly: In vitro effect on T. cruzi intracellular amastigotes in Vero cells. In kind it is cell-based, Trypanosoma cruzi. The conditions noted are these: one hour period, relative to no peptide. Here is the method: Vero cells at 10^5 cells/ml in MEM-FBS were mixed with Trypanosoma Cruzi in the trypomastigote stage at 10^5 cells/ml in the same medium at a 1:1 ratio of Vero cells to trypomastigotes. The mixture of Vero cells and trypomastigotes was cultured at 37° C. in a 5% CO2 atmosphere in microscope slide chambers. At 24 hours, cecropin SB-37 was added to the chambers, except for a set of controls, at a final concentration of 100 μM. […]

Data set [2] in a line: Viability by trypan blue exclusion, SP2 cells. Format: cell-based, mouse. As to conditions: 100 μM. Here is the method: (§1) EL-4 lymphoma cells were suspended in RPMI 1640 at 5,000,000/ml with 500,000 cells per well. Various concentrations of cecropin SB-37 and Shiva 1 were added and the wells incubated at 37° C. in a 5% CO2 atmosphere for one hour. Viability was determined by microscopic observation for trypan blue exclusion.
(§2) The procedure of Example 5 was repeated with 50 and 200 μM cecropin SB-37 using SP2 mouse lymphoma cells, KG-1 human leukemia cells, Daudi human Burkitt's lymphoma cells, non-adherent normal human lymphocytes and adherent 3T3 […] fibroblasts. Viability was determined by microscopic observation for trypan blue exclusion.
(§3) This procedure was repeated with 100 μM cecropin SB-37 using non-adherent normal human lymphocytes, Daudi human Burkitt's lymphoma cells, KG-1 human leukemia cells, U937 human monocytic leukemia cells, and SP2 murine myeloma cells, and determining viability by the trypan blue exclusion method at 15, 30 and 60 minutes following addition of the peptide.

Another data set relates to SP2 mouse lymphoma cells. Put plainly: Viability by trypan blue exclusion, SP2 cells. In kind it is cell-based. On the procedure:
as §1, §2, §3

Data set [3] relates to Erwinia caratovora subsp. carotova. Put plainly: Plant pathogen LD50 in cecropin SB-37/lysozyme. In kind it is cell-based. As to conditions: incubation at 30° C.

Residues, ends and D or L forms follow the SMILES beside them.

Regarding `CC[C@H](C)[C@H](NC(=O)CNC(=O)[C@H](CC(N)=O)NC(=O)[C@H](CCCNC(=N)N)NC(=O)[C@@H](NC(=O)[C@H](CC(N)=O)NC(=O)[C@H](CCCNC(=N)N)NC(=O)CNC(=O)[C@H](CCSC)NC(=O)[C@H](CCCCN)NC(=O)[C@H](CCC(=O)O)NC(=O)[C@@H](NC(=O)[C@H](CCCCN)NC(=O)[C@H](CCCCN)NC(=O)[C@H](Cc1ccccc1)NC(=O)[C@@H](NC(=O)[C@H](CCCCN)NC(=O)[C@H](Cc1c[nH]c2ccccc12)NC(=O)[C@H](CCCCN)NC(=O)[C@@H]1CCCN1C(=O)[C@@H](N)CCSC)C(C)C)[C@@H](C)CC)[C@@H](C)CC)C(=O)N[C@H](C(=O)N[C@@H](CCCCN)C(=O)N[C@@H](C)C(=O)NCC(=O)N1CCC[C@H]1C(=O)N[C@@H](C)C(=O)N[C@H](C(=O)N[C@@H](C)C(=O)N[C@H](C(=O)N[C@@H](CC(C)C)C(=O)NCC(=O)N[C@@H](CCC(=O)O)C(=O)N[C@@H](C)C(=O)N[C@@H](CCCCN)C(=O)N[C@@H](C)C(=O)N[C@@H](CC(C)C)C(=O)NCC(N)=O)C(C)C)[C@@H](C)CC)C(C)C` [Cecropin SB-37] (H-MPKWKVFKKIEKMGRNIRNGIVKAGPAIAVLGEAKALG-NH2), the “LD50 (concentration for 50% reduction in number of infected Vero cells)” value in data set [1] was “about 90 μM”. Besides, the viability at 100 µM in data set [2] (15 min.) is 100%; in data set [2] (30 min.) it was 40%; in data set [2] (60 min.), 10%. The “Survival (percent)” value was found to be 20% with SP2 mouse lymphoma cells (50 μM) and 5% in the data set on SP2 mouse lymphoma cells (100 μM). Also, the LD50 in data set [3] was 1.48 µM.
